This data set can be described thus: Half life in diluvial and volcanic ash soils under upland laboratory conditions. It is filed as physicochemical.

As for `Cc1nn(C)c(Oc2ccccc2)c1/C=N/OCc1ccc(C(=O)OC(C)(C)C)cc1` [FENPYROXYMATE], the t1/2 was 26.3 days.

The values are drawn from ChEMBL document CHEMBL3045970, “Development of a New Acaricide, Fenpyroximate” (J Pestic Sci, 1995).
